# Experimental data from PubChem BioAssay AID1963867 (Molecular Pharmacology Branch, DTP, NCI, 2024).
# System: KRAS-mutant PDC tumor spheroid with HUVEC/MSC, viability
# Assay: Anticancer human tumor 327498-153-R-J2-PDC patient-derived uterine carcinosarcoma cell line growth inhibition [KRAS2]
# Details: for viability, T/C: stronger effect = lower value
# Procedure, shortened: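 Combination screen of spheroid viability in tumor-cell co-cultures with endothelial (HUVEC) and mesenchymal stem cell stroma. Each agent was tested in half-log dilutions, topping at clinical Cmax or at 10 microM without a known Cmax.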
# [1] = curve of first compound, second compound 0.1 µM
# [2] = curve of first compound, second compound 0.316 µM
# [3] = curve of first compound, second compound 1 µM
# [4] = curve of first compound, second compound 3.16 µM
# [5] = second compound 0.1 µM, first compound 0.0316 µM
# [6] = second compound 0.1 µM, first compound 0.1 µM
# [7] = second compound 0.316 µM, first compound 0.0316 µM
# [8] = second compound 0.316 µM, first compound 0.1 µM
# [9] = second compound 1 µM, first compound 0.0316 µM
# [10] = second compound 1 µM, first compound 0.1 µM
# [11] = second compound 3.16 µM, first compound 0.0316 µM
# [12] = second compound 3.16 µM, first compound 0.1 µM
# 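Also: spheroids exposed to agents for seven days before reading.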
# 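For viability, T/C in this document: 100% = DMSO vehicle wells so lower means fewer viable cells.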
structure (smiles),measurement,setting,value
Cn1nccc1Nc1nccc(-c2cc3c(s2)C(C)(C)N(CCN2CCOCC2)C3=O)n1,"viability, T/C",compound 0.0316 µM,101% [middle of 5 runs]
same,"viability, T/C",compound 0.1 µM,96.8% [middle of 5 runs]
same,"viability, T/C",compound 0.316 µM,79.2% [middle of 5 runs]
same,"viability, T/C",compound 1 µM,69.1% [middle of 5 runs]
same,"viability, T/C",compound 3.16 µM,57.6% [middle of 5 runs]
same,"viability, T/C",compound 10 µM,43.9% [middle of 5 runs]
same,IC50,curve of compound,5.75 µM [middle of 5 runs]
COc1cc(Nc2ncc3c(n2)-c2ccc(Cl)cc2C(c2c(F)cccc2OC)=NC3)ccc1C(=O)O,"viability, T/C",compound 0.0316 µM,19.4% [middle of 5 runs]
same,"viability, T/C",compound 0.1 µM,13.1% [middle of 5 runs]
same,"viability, T/C",compound 0.316 µM,11.2% [middle of 5 runs]
same,"viability, T/C",compound 1 µM,12.1% [middle of 5 runs]
same,"viability, T/C",compound 3.16 µM,12.5% [middle of 5 runs]
same,"viability, T/C",compound 10 µM,14.5% [middle of 5 runs]
same,IC50,curve of compound,< 31.6 nM
CC1OCC2(CCN(c3cnc(Sc4ccnc(N)c4Cl)c(N)n3)CC2)C1N (centres undefined) + COc1cc2nc(C)nc(NC(C)c3cc(N)cc(C(F)(F)F)c3)c2cc1OC1CCOC1,IC50,[1],129 nM
same,IC50,[2],85.5 nM
same,IC50,[3],99.3 nM
same,IC50,[4],64.8 nM
same,IC50,"curve of first compound, second compound 10 µM",< 31.6 nM
same,"viability, T/C",[5],72.8%
same,"viability, T/C",[6],46.9%
same,"viability, T/C","second compound 0.1 µM, first compound 0.316 µM",44.7%
same,"viability, T/C","second compound 0.1 µM, first compound 1 µM",34.4%
same,"viability, T/C","second compound 0.1 µM, first compound 3.16 µM",29.3%
same,"viability, T/C","second compound 0.1 µM, first compound 10 µM",23.6%
same,"viability, T/C",[7],61.6%
same,"viability, T/C",[8],47.5%
same,"viability, T/C","second compound 0.316 µM, first compound 0.316 µM",39.8%
same,"viability, T/C","second compound 0.316 µM, first compound 1 µM",32.3%
same,"viability, T/C","second compound 0.316 µM, first compound 3.16 µM",29.6%
same,"viability, T/C","second compound 0.316 µM, first compound 10 µM",27.8%
same,"viability, T/C",[9],61.6%
same,"viability, T/C",[10],50.2%
same,"viability, T/C","second compound 1 µM, first compound 0.316 µM",39.6%
same,"viability, T/C","second compound 1 µM, first compound 1 µM",32.8%
same,"viability, T/C","second compound 1 µM, first compound 3.16 µM",27.8%
same,"viability, T/C","second compound 1 µM, first compound 10 µM",22.7%
same,"viability, T/C",[11],58%
same,"viability, T/C",[12],43.3%
same,"viability, T/C","second compound 3.16 µM, first compound 0.316 µM",39.6%
same,"viability, T/C","second compound 3.16 µM, first compound 1 µM",28.7%
same,"viability, T/C","second compound 3.16 µM, first compound 3.16 µM",23.5%
same,"viability, T/C","second compound 3.16 µM, first compound 10 µM",23.7%
same,"viability, T/C","second compound 10 µM, first compound 0.0316 µM",49.5%
same,"viability, T/C","second compound 10 µM, first compound 0.1 µM",37.5%
same,"viability, T/C","second compound 10 µM, first compound 0.316 µM",31.2%
same,"viability, T/C","second compound 10 µM, first compound 1 µM",25.2%
same,"viability, T/C","second compound 10 µM, first compound 3.16 µM",25.3%
same,"viability, T/C","second compound 10 µM, first compound 10 µM",16.2%
Cn1ncnc1[C@H]1c2n[nH]c(=O)c3cc(F)cc(c23)N[C@@H]1c1ccc(F)cc1 + C=CC(=O)N1CCN(c2nc(OCC3CCCN3C)nc3c2CCN(c2cccc4cccc(C)c24)C3)CC1CC#N,IC50,"curve of first compound, second compound 0.0316 µM",7.27 nM
same,IC50,[1],3.84 nM
same,IC50,[2],1.97 nM
same,IC50,[3],< 0.316 nM
same,IC50,[4],< 0.316 nM
same,"viability, T/C","second compound 0.0316 µM, first compound 0.000316 µM",77.5%
same,"viability, T/C","second compound 0.0316 µM, first compound 0.001 µM",69.2%
same,"viability, T/C","second compound 0.0316 µM, first compound 0.00316 µM",63.3%
same,"viability, T/C","second compound 0.0316 µM, first compound 0.01 µM",45.2%
same,"viability, T/C","second compound 0.0316 µM, first compound 0.0316 µM",28.2%
same,"viability, T/C","second compound 0.0316 µM, first compound 0.1 µM",16.9%
same,"viability, T/C","second compound 0.1 µM, first compound 0.000316 µM",54.5%
same,"viability, T/C","second compound 0.1 µM, first compound 0.001 µM",57.5%
same,"viability, T/C","second compound 0.1 µM, first compound 0.00316 µM",54.3%
same,"viability, T/C","second compound 0.1 µM, first compound 0.01 µM",35.2%
same,"viability, T/C",[5],21.9%
same,"viability, T/C",[6],14.6%
same,"viability, T/C","second compound 0.316 µM, first compound 0.000316 µM",56.1%
same,"viability, T/C","second compound 0.316 µM, first compound 0.001 µM",48.5%
same,"viability, T/C","second compound 0.316 µM, first compound 0.00316 µM",49.8%
same,"viability, T/C","second compound 0.316 µM, first compound 0.01 µM",32.8%
same,"viability, T/C",[7],18.7%
same,"viability, T/C",[8],13.7%
same,"viability, T/C","second compound 1 µM, first compound 0.000316 µM",44%
same,"viability, T/C","second compound 1 µM, first compound 0.001 µM",53.7%
same,"viability, T/C","second compound 1 µM, first compound 0.00316 µM",37.1%
same,"viability, T/C","second compound 1 µM, first compound 0.01 µM",25.4%
same,"viability, T/C",[9],17.1%
same,"viability, T/C",[10],12.3%
same,"viability, T/C","second compound 3.16 µM, first compound 0.000316 µM",0.23%
same,"viability, T/C","second compound 3.16 µM, first compound 0.001 µM",0.18%
same,"viability, T/C","second compound 3.16 µM, first compound 0.00316 µM",0.94%
same,"viability, T/C","second compound 3.16 µM, first compound 0.01 µM",0.16%
same,"viability, T/C",[11],0.18%
same,"viability, T/C",[12],0.22%
